{
  "source": "patent US8653032B2",
  "about": "“Pharmaceutical composition for preventing / treating TRPV1 activity-related and inflammation-related diseases or conditions containing maillard peptide separated from well-aged traditional soy sauce as active ingredient” (Korea Food Research Institute, priority 2009, dated 2014)",
  "system": "COX-2",
  "test": "COX-2 promoter reporter gene (luciferase) assay, COX-2 induced with TPA, cells transfected with TRPV1 of human",
  "assay_type": "cell-based",
  "settings": "Maillard peptides 0.1% and 0.2%",
  "protocol": "In order to measure COX-2 activity inhibition effect of Maillard peptides of the present invention, the following experiment was performed.\n[…] cells were cultivated in the growth medium (DMEM, 10% calf serum, 100 units/ml penicillin, 100 μg/ml streptomycin) at 37° C., atmosphere: air 95% (v/v), carbon dioxide, 5% to generate cells growing exponentially; the medium was removed, washed with PBS, and treated with trypsin to separate the cultivated cells; and the separated cells were placed in the medium containing serum to inactivate trypsin. Centrifugal filtration was performed at 200/g for 2 min to obtain cell pellets. […] The transformed plasmid cells were washed with PBS, and dissolution buffer (125 mM Tris pH 7.8, 10 mM CDTA, 10 mM DTT, 50% glycerol, 5% triton X-100) was added to destroy the cells and obtain supernatant liquid, and the amount (concentration) of protein was quantified with Bradford assay. Luciferase activity was measured by adding 100 μl of buffer(20 mM trysin, 1.07 mM (MgCO3)4Mg(OH)2H20, 2.67 mM MgSO4, 0.1 mM EDTA, 33.3 mM DTT, 270 μM coenzyme A(Lithium salt), 470 μM luciferin, 530 μM ATP) and measuring light emission with Luminometer (LUMAT LB 9501/16) for 20 min. […]",
  "data": [
    {"smiles": "C=C(C)[C@]12C[C@@H](C)[C@@]34O[C@](Cc5ccccc5)(O[C@@H]1[C@@H]3C=C(COC(=O)Cc1ccc(O)c(OC)c1)C[C@]1(O)C(=O)C(C)=C[C@@H]41)O2", "note": "[resiniferatoxin]", "values": [
      {"measurement": "COX-2 activity induced by TPA", "value": "decreased"}
    ]}
  ]
}
